Results taken from patent US20150166625A1 (Sanofi, priority 2013, published 2015).

System: female diabetic dbdb-mice
Test: Glucose lowering in female diabetic dbdb-mice
Format: in vivo, mouse
Settings: 100 μg/kg s.c.
Description: Female diabetic dbdb-mice (BKS.Cg-+Leprdb/+Leprdb/OlaHsd) 10 weeks of age at study start were used. Mice were habituated to feeding and housing conditions for at least 2 weeks. 7 days prior to study start, HbA1c were determined to allocate mice to groups, aiming to spread low, medium and high HbA1c-values and in consequence the group-means (n=8), as equally as possible. On the day of study, food was removed, directly before sampling for baseline glucose assessment (t=0 min). Immediately afterwards, compounds or vehicle (phosphor buffered saline, PBS) were administered subcutaneously, 100 μg/kg, 10 ml/kg. Afterwards, blood samples were drawn by tail tip incision at 15, 30, 60, 90, 120, 150, 180, 240, 360, 480 min and 24 h. Food was re-offered after the 480 min-sampling.
Data were analysed by 2-W-ANOVA on repeated measurements, followed by Dunnett's test as post-hoc assessment, level of significance p<0.05.

H-Aib-HGTFTSDLSKQLDEQLAKDFIEWLIAGGPSSGAPPPS-NH2 [SEQ ID NO: 9]
maximal effect, glucose reduction (non-fasted female db/db mice, baseline on average 28 mmol/l): ~12 mmol/L

HSHGTFTSDLSKQLDEQLAKDFIEWLIAGGPSSGAPPPS-NH2 [SEQ ID NO: 10]
reduction of glucose compared to vehicle control (female db/db mice, from t=60 min until 240 min, p<0.05): statistical significant reduction of glucose
